Measurements reported in US20080187512A1, “Treatment for spinal muscular atrophy” (Academia Sinica, priority 2007, published 2008).
Like-named read-outs stand apart in the source and are kept apart here.

Columns and labels:
Crk = conditions: SMN2-NSC34 cells
Procedure: (§1) Western blot analysis. Cells treated by dsRNA, compounds or Stat5A1*6 transfected were detached by scraping, pelletting and rinsing in PBS. Cell pellets were collected after centrifugation and lysed on ice in modified RIPA buffer (50 mM Tris-HCl (pH7.4), 1% NP-40, 0.25% deoxycholic acid, 0.15M NaCl, 1 mM EDTA, 1 mM PMSF/NaF/sodium orthovanadate, and protease inhibitors cocktail (Roche, Mannheim, Germany) for 30 min. After centrifugation, the supernatants were collected and kept frozen at −20° C. Protein concentrations were determined by Bio-Rad protein assay method. For Western blot analysis, protein samples were boiled for 5 min and electrophoresed on 8% or 10% SDS-polyacrylamide gel in a 1× running buffer (25 mM Tris, 192 mM glycine, 3.4 mM SDS, pH 8.3) and subsequently electrotransferred to Polyvinylidene Fluoride tansfer membrane (Pall, Pensacola, Fla.) using a TE 22 mini-tank transfer unit (Amersham Biosciences, San Francisco, Calif.) at 35 volts overnight in transfer buffer (25 mM Tris, 192 mM glycine, 20% methanol, pH8.3). The blotting membranes were incubated in blocking solution (PBS, 5% non-fat milk, 0.2% Tween-20) for 1 hour at room temperature, and then incubated in the same solution with the primary antibody (human-specific SMN/1:1000; SMN/1:5000, Transduction Laboratories, Lexington, Ky.; phospho-Stat5a/b/1:1000, Cell signaling, Beverly, Mass.; phospho-Jak2/1:1000, Upstate, Lake Placid, N.Y.; Flag BioM2/1:1000, Sigma, St. Louis, MO; c-myc/1:200, Santa Cruz Biotech, Santa Cruz, Calif.; α-Tubilin/1:10000, Upstate, Lake Placid, N.Y., MO), overnight at 4° C. The membranes were washed and incubated in the blocking solution with the proper HRP-conjugated secondary antibody at 1/5000 dilution (Chemicon, Temecula, Calif.) for 1 hour at room temperature. After washing three times in PBS containing 0.1% Tween-20, the signals were visualized by autoradiography (Fuji Medical X-ray film, Fuji Photos, Tokyo) using enhanced chemi-luminescence (ECL detection system; Perkin-Elmer, Boston, Calif.). Western blot quantification was performed by scanning the auto-radiographs with a computerized densitometer. Signal intensities were determined by densitometry analysis (Fuji film LAS-1000 plus pictography) using the program Phoreticx 1D (Phoreticx International).

GRB14 = conditions: SMN2-NSC34 cells
Procedure: as §1

KAP = conditions: SMN2-NSC34 cells
Procedure: as §1

LAR = conditions: SMN2-NSC34 cells
Procedure: as §1

MKP2 = conditions: SMN2-NSC34 cells
Procedure: as §1

PTP1B = conditions: SMN2-NSC34 cells
Procedure: as §1

PTP1C/SHP1 = conditions: SMN2-NSC34 cells
Procedure: as §1

RPTPα = conditions: SMN2-NSC34 cells
Procedure: as §1

RPTPβ = conditions: SMN2-NSC34 cells
Procedure: as §1

SHC = conditions: SMN2-NSC34 cells
Procedure: as §1

ShcC = conditions: SMN2-NSC34 cells
Procedure: as §1

ERK1/2 (pT202/pY204) = experiment: Signaling pathway screen in SMN2-NSC34 cells; type: cell-based, mouse
JNK (pT183/pY185) = experiment: Signaling pathway screen in SMN2-NSC34 cells; type: cell-based, mouse
P38 (pT180/pY182) = experiment: Signaling pathway screen in SMN2-NSC34 cells; type: cell-based, mouse
Stat2 (pY705) = experiment: Signaling pathway screen in SMN2-NSC34 cells; type: cell-based, mouse
Stat3 (pY705) = experiment: Signaling pathway screen in SMN2-NSC34 cells; type: cell-based, mouse

Sodium vanadate
Crk cellular response (Crk; 4 hrs): +/− | Crk cellular response (Crk; 8 hrs): +/− | GRB14 cellular response (GRB14; 4 hrs): +/− | GRB14 cellular response (GRB14; 8 hrs): +/− | KAP cellular response (KAP; 4 hrs): +/− | KAP cellular response (KAP; 8 hrs): − | LAR cellular response (LAR; 4 hrs): +/− | LAR cellular response (LAR; 8 hrs): +/− | MKP2 cellular response (MKP2; 4 hrs): − | MKP2 cellular response (MKP2; 8 hrs): − | PTP1B cellular response (PTP1B; 4 hrs): +/− | PTP1B cellular response (PTP1B; 8 hrs): − | PTP1C/SHP1 cellular response (PTP1C/SHP1; 4 hrs): +/− | PTP1C/SHP1 cellular response (PTP1C/SHP1; 8 hrs): − | RPTPα cellular response (RPTPα; 4 hrs): +/− | RPTPα cellular response (RPTPα; 8 hrs): − | RPTPβ cellular response (RPTPβ; 4 hrs): +/− | RPTPβ cellular response (RPTPβ; 8 hrs): +/− | SHC cellular response (SHC; 4 hrs): +/− | SHC cellular response (SHC; 8 hrs): +/− | ShcC cellular response (ShcC; 4 hrs): +/− | ShcC cellular response (ShcC; 8 hrs): +/− | ERK1/2 (pT202/pY204) cellular response (ERK1/2 (pT202/pY204); 4 hrs): + | ERK1/2 (pT202/pY204) cellular response (ERK1/2 (pT202/pY204); 8 hrs): ++ | JNK (pT183/pY185) cellular response (JNK (pT183/pY185); 4 hrs): +/− | JNK (pT183/pY185) cellular response (JNK (pT183/pY185); 8 hrs): + | P38 (pT180/pY182) cellular response (P38 (pT180/pY182); 4 hrs): +/− | P38 (pT180/pY182) cellular response (P38 (pT180/pY182); 8 hrs): + | Stat2 (pY705) cellular response (Stat2 (pY705); 4 hrs): +/− | Stat2 (pY705) cellular response (Stat2 (pY705); 8 hrs): +/− | Stat3 (pY705) cellular response (Stat3 (pY705); 4 hrs): + | Stat3 (pY705) cellular response (Stat3 (pY705); 8 hrs): ++
